# Measurements taken from US20240270821A1, “GIP/GLP1/GCG TRI-RECEPTOR AGONISTS AND USES THEREOF” (priority 2023, published 2024).
# Where two headings read alike, the source gives them in different places. Starred links: 1 amine or outer side, 2 acyl side, 3 side chain; linkers in the order of their positions; H or OH if unused. Non-standard residues stand in square brackets, D forms with d. Groups on a side chain read outwards from the residue. No end group written: not given here. *: point of attachment. C20 diacid = O=C(O)CCCCCCCCCCCCCCCCCCC(=O)*; C18 diacid = O=C(O)CCCCCCCCCCCCCCCCC(=O)*; Phe(4-CN) = N#Cc1ccc(C[C@H](N)C(=O)O)cc1; αMePhe(2-F) = C[C@](N)(Cc1ccccc1F)C(=O)O; γGlu = O=C(O)[C@H](CCC(=O)[*:2])N[*:1]; αMe4Pal = C[C@](N)(Cc1ccncc1)C(=O)O; αMeY = C[C@](N)(Cc1ccc(O)cc1)C(=O)O; 4Pal = N[C@@H](Cc1ccncc1)C(=O)O; αMeL = CC(C)C[C@](C)(N)C(=O)O; αMeS = C[C@](N)(CO)C(=O)O; Orn = NCCC[C@H](N)C(=O)O; AEEA = NCCOCCOCC(=O)O; Aib = CC(C)(N)C(=O)O
# Columns and labels:
# Assay type in all cases: cell-based
# [1] = target: T1, hGIPR (Homo sapiens, UniProt P48546); assay: Functional cAMP activation in the presence of 0.1% casein (no HSA); conditions: read-out: Relative cAMP EC50, hGIPR;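 note: intracellular cAMP rise after 30 min at 37 °C read by HTRF against a standard curve, scaled between buffer alone (0%) and top control ligand concentration (100%), four-parameter fit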
# T1 sequence (P48546 22-466): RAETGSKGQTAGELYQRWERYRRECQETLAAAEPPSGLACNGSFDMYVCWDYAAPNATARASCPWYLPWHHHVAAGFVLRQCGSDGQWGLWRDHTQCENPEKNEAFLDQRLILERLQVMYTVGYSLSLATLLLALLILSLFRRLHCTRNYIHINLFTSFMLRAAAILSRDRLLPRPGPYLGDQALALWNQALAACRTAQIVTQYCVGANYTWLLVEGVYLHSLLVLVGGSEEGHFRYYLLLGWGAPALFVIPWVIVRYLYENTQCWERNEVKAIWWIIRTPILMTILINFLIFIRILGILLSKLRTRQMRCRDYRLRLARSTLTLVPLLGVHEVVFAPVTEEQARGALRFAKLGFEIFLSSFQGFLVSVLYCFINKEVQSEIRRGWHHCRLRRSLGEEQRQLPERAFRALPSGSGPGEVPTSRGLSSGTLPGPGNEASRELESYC
# [2] = target: T1, hGIPR; assay: Functional cAMP activity in the presence of 1% HSA; conditions: read-out: cAMP Rel EC50, hGIPR
# [3] = target: hGcgR (Homo sapiens, UniProt P47871); assay: Functional cAMP activation in the presence of 0.1% casein (no HSA); conditions: read-out: Relative cAMP EC50, hGcgR;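 note: intracellular cAMP rise after 30 min at 37 °C, read by HTRF against a cAMP standard curve, scaled from buffer only (0%) to maximal control ligand response (100%)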
# Sequence of hGcgR (P47871 26-477): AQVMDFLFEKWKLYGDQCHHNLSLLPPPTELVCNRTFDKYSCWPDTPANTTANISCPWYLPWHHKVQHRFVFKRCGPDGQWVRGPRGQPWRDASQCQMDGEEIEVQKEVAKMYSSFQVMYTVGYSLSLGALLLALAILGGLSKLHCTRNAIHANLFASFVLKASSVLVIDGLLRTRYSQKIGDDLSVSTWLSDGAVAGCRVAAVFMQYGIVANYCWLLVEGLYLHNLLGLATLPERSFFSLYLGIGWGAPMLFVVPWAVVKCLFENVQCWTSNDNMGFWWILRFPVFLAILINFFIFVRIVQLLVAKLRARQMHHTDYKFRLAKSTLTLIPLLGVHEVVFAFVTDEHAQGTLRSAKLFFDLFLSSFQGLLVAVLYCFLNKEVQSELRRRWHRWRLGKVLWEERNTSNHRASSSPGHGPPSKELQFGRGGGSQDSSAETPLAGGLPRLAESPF
# [4] = target: T2, hGLP-1R (Homo sapiens, UniProt P43220); assay: as above; conditions: read-out: Relative cAMP EC50, hGLP-1R;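 note: intracellular cAMP rise after 30 min at 37 °C read by HTRF, normalized between buffer only (0%) and maximal control ligand (100%), four-parameter variable-slope fit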
# T2 sequence (P43220 24-463): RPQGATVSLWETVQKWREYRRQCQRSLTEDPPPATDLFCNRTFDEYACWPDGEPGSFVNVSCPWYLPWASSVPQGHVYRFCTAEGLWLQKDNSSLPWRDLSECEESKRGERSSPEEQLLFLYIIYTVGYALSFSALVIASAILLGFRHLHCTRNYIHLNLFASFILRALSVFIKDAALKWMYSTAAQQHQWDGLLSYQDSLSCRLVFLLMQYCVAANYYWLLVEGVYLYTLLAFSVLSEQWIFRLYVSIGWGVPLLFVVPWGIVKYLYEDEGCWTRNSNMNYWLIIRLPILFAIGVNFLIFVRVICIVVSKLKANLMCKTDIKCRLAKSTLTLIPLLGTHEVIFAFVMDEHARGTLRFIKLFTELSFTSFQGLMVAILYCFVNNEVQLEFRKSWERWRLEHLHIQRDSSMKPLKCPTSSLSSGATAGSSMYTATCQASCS
# [5] = target: T2, hGLP-1R; assay: Functional cAMP activity in the presence of 1% HSA; conditions: read-out: cAMP Rel EC50, hGLP-1R
# [6] = target: human GcgR (Homo sapiens, UniProt P47871); assay: Functional cAMP activity in the presence of 1% HSA; conditions: read-out: cAMP Rel EC50, hGcgR
# Sequence of human GcgR (P47871 26-477): as the sequence (P47871 26-477) above
# [7] = in the presence of 0.1% casein (no HSA), geometric mean
# [8] = 0.1% casein, no HSA, geometric mean
Compound,EC50 [1],EC50 [2],EC50 [3],EC50 [4],EC50 [5],EC50 [6],"EC50 [1, 7]","EC50 [3, 7]","EC50 [4, 7]","EC50 [1, 8]","EC50 [3, 8]","EC50 [4, 8]"
H-Y[Aib]QGT[αMePhe(2-F)]TSD[4Pal]SI[αMeL]LD[Orn]K([γGlu-γGlu-C18 diacid])AQ[αMe4Pal]EFI[dE][αMeY]LLEGGPSSGAPPPSGE-NH2 [Example 617],0.00849 nM,0.643 nM,4.56 nM,0.534 nM,67.4 nM,547 nM,,,,,,
H-Y[Aib]QGTFTSDFSK[αMeL]LDKK([AEEA-γGlu-C20 diacid])AQ[Aib]AFIEYLLEGGPSSGAPPP[γGlu]EG-NH2 [Example 52],,111 nM,,,1250 nM,1740 nM,0.449 nM,5.84 nM,5.18 nM,,,
H-Y[Aib]QGT[αMePhe(2-F)]TSD[Phe(4-CN)]SILLDKQAQK([AEEA-AEEA-γGlu-C20 diacid])AFIEYLLEGGPSSGEPPPSAG-NH2 [Example 350],,33.6 nM,,,360 nM,3760 nM,0.106 nM,10.4 nM,0.776 nM,,,
H-Y[Aib]QGT[αMePhe(2-F)]TSD[4Pal][αMeS]I[αMeL]LD[Orn]QAQ[αMe4Pal]EFI[dE][αMeY]LIEGGPSSGAPPPSGSE-NH2 [Example 1233],,0.00988 nM,,,1.06 nM,9.9 nM,,,,0.012 nM,9.48 nM,1.09 nM
H-Y[Aib]QGT[αMePhe(2-F)]TSD[4Pal][αMeS]I[αMeL]LD[Orn]K([γGlu-γGlu-C18 diacid])AQ[αMe4Pal]EFI[dE][αMeY]LIEGGPPS[Aib][Orn]PPP[Orn]GE-NH2 [Example 1227],,0.527 nM,,,39.5 nM,199 nM,,,,0.00621 nM,1.99 nM,0.387 nM
CC[C@H](C)[C@H](NC(=O)[C@H](Cc1ccccc1)NC(=O)[C@H](C)NC(=O)C(C)(C)NC(=O)[C@H](CCC(N)=O)NC(=O)[C@H](C)NC(=O)[C@H](CCCCNC(=O)COCCOCCNC(=O)COCCOCCNC(=O)CC[C@H](NC(=O)CCCCCCCCCCCCCCCCCCC(=O)O)C(=O)O)NC(=O)[C@H](CCCCN)NC(=O)[C@H](CC(=O)O)NC(=O)[C@H](CC(C)C)NC(=O)[C@](C)(CC(C)C)NC(=O)[C@H](CCCN)NC(=O)[C@H](CO)NC(=O)[C@H](Cc1ccccc1)NC(=O)[C@H](CC(=O)O)NC(=O)[C@H](CO)NC(=O)[C@@H](NC(=O)[C@H](Cc1ccccc1)NC(=O)[C@@H](NC(=O)CNC(=O)[C@H](CCC(N)=O)NC(=O)C(C)(C)NC(=O)[C@@H](N)Cc1ccc(O)cc1)[C@@H](C)O)[C@@H](C)O)C(=O)N[C@@H](CCC(=O)O)C(=O)N[C@@H](Cc1ccc(O)cc1)C(=O)N[C@@H](CC(C)C)C(=O)N[C@@H](CC(C)C)C(=O)N[C@@H](CCC(=O)O)C(=O)N[C@H](C)C(=O)NCC(=O)N1CCC[C@H]1C(=O)N[C@@H](CO)C(=O)N[C@@H](CO)C(=O)NCC(=O)N[C@@H](C)C(=O)N1CCC[C@H]1C(=O)N1CCC[C@H]1C(=O)N1CCC[C@H]1C(=O)N[C@@H](CO)C(=O)N[C@@H](CCC(=O)O)C(=O)NCC(N)=O [Example 72],,56.7 nM,,,683 nM,1910 nM,0.202 nM,5.48 nM,1.86 nM,,,
H-Y[Aib]QGT[αMePhe(2-F)]TSD[4Pal]SILLDKK([AEEA-γGlu-C18 diacid])AQ[Aib]AFIEYLEEGGPSSGAPPPSGTGE-NH2 [Example 662],0.0704 nM,4.69 nM,4.81 nM,0.946 nM,84.5 nM,561 nM,,,,,,
Y[Aib]QGTFTSD[4Pal]SQ[αMeL]LDKK([γGlu-dE-dE-C18 diacid])AQ[αMe4Pal]AFIEYLIE[Aib]GPSSGAPPPSGSEE-NH2 [Example 930],,19.9 nM,,,824 nM,1700 nM,0.244 nM,13 nM,11 nM,,,
H-Y[Aib]QGTFTSD[4Pal]S[Orn][αMeL]LDKK([AEEA-AEEA-γGlu-C18 diacid])AQ[αMe4Pal]AFIEYLIE[Aib]GPSSGAPPPSGS-NH2 [Example 814],,27.8 nM,,,649 nM,554 nM,0.337 nM,3.92 nM,3.76 nM,,,
